Values after ≈ are worked out from the molar mass of the structure shown.
How the values were obtained:
[1] = Metabolic stability in rat hepatocytes assessed as intrinsic clearance measured per 10^6 cells at 100 uM incubated upto 60 mins by UPLC-MS/MS analysis; format: ADME, cell-based, Hepatocyte; settings: read-out: CLH
[2] = Metabolic stability in pooled rat liver microsomes assessed as intrinsic clearance at 1 uM measured upto 45 mins in presence of NADPH by UPLC-MS/MS analysis; format: ADME, Microsome; settings: read-out: CLH
[3] = Protein binding in rat plasma assessed as unbound fraction at 5 uM incubated for 4 hrs by UPLC-MS analysis; format: ADME, cell-free
[4] = Lipophilicity, logD of compound at pH 7.4; format: physicochemical; settings: buffer
[5] = Protein binding in mouse plasma assessed as unbound fraction at 5 uM incubated for 4 hrs by UPLC-MS analysis; format: ADME, cell-free
[6] = tested on: BCRP; test: Permeability in MDCK-II-BCRP cells at 5 uM incubated for 2 hrs by LC-MS/MS analysis; format: ADME, cell-based, Canis lupus familiaris; settings: dog, read-out: permeability
[7] = Protein binding in human plasma assessed as unbound fraction at 5 uM incubated for 4 hrs by UPLC-MS analysis; format: ADME, cell-free
[8] = Inhibition of NLRP3 inflammasome activation mediated pyroptosis in LPS-stimulated human THP-1 cells preincubated for 3 hrs followed by nigericin addition and measured after 1 hrs by resazurin dye based assay; format: cell-based
[9] = tested on: MDR1; test: Efflux ratio of permeability across apical to basolateral side in pig LLC-PK1 cells transfected with MDR1; format: ADME, cell-based, Sus scrofa
[10] = Clearance in male Sprague-Dawley rat at 1 mg/kg, iv measured after 24 hrs by LC-MS analysis; format: ADME, organism-based; settings: in vivo
[11] = Volume of distribution at steady state in male Sprague-Dawley rat at 1 mg/kg, iv measured after 24 hrs by LC-MS analysis; format: ADME, organism-based; settings: in vivo, read-out: Vdss
[12] = Metabolic stability in human hepatocytes assessed as intrinsic clearance measured per 10^6 cells at 100 uM incubated upto 60 mins by UPLC-MS/MS analysis; format: ADME, cell-based, Hepatocyte; settings: read-out: CLH
[13] = tested on: MDR1; test: Efflux ratio of permeability in MDCKII-MDR1 cells at 5 uM incubated for 2 hrs by LC-MS/MS analysis; format: ADME, cell-based, Canis lupus familiaris; settings: dog, MDCK-MDR1
[14] = AUC (0 to infinity) in male Sprague-Dawley rat at 1 mg/kg, iv measured after 24 hrs by LC-MS analysis; format: ADME, organism-based; settings: in vivo
[15] = Half-life in male Sprague-Dawley rat at 1 mg/kg, iv measured after 24 hrs by LC-MS analysis; format: ADME, organism-based; settings: in vivo
[16] = tested on: MDR1; test: Permeability across apical to basolateral side in pig LLC-PK1 cells transfected with MDR1; format: ADME, cell-based, Sus scrofa; settings: read-out: permeability
[17] = tested on: BCRP; test: Efflux ratio of permeability in MDCK-II-BCRP cells at 5 uM incubated for 2 hrs by LC-MS/MS analysis; format: ADME, cell-based, Canis lupus familiaris; settings: dog
[18] = tested on: MDR1; test: Permeability in MDCKII-MDR1 cells at 5 uM incubated for 2 hrs by LC-MS/MS analysis; format: ADME, cell-based, Canis lupus familiaris; settings: dog, MDCK-MDR1, read-out: permeability
[19] = Inhibition of NLRP3 inflammasome activation in LPS-stimulated human whole blood assessed as reduction in IL-1beta release preincubated for 3 hrs followed by nigericin addition and measured after 1 hrs by Alphalisa method; format: tissue-based
[20] = Binding affinity to NanoLuc-tagged NLRP3 (unknown origin) expressed in HEK293 cells incubated for 2 hrs by NanoBRET assay; format: cell-based; settings: Homo sapiens, HEK293, 2 h
[21] = species on record: Homo sapiens; test: Selectivity ratio of IC50 for inhibition of NLRP3 inflammasome activation in LPS-stimulated human whole blood assessed as reduction in IL-1beta release to IC50 for inhibition of NLRP3 inflammasome activation mediated pyroptosis in LPS-stimulated human THP-1 cells
[22] = Metabolic stability in mouse hepatocytes assessed as intrinsic clearance measured per 10^6 cells at 100 uM incubated upto 60 mins by UPLC-MS/MS analysis; format: ADME, cell-based, Hepatocyte; settings: read-out: CLH
[23] = Metabolic stability in pooled mouse liver microsomes assessed as intrinsic clearance at 1 uM measured upto 45 mins in presence of NADPH by UPLC-MS/MS analysis; format: ADME, Microsome; settings: read-out: CLH
[24] = Kinetic solubility of compound; format: physicochemical; settings: read-out: Kinetic_solubility
[25] = Metabolic stability in pooled human liver microsomes assessed as intrinsic clearance at 1 uM measured upto 45 mins in presence of NADPH by UPLC-MS/MS analysis; format: ADME, Microsome; settings: read-out: CLH

SMILES | IC50 [19] [nM] | IC50 [8] [nM] | other results
COc1cc(-c2cc(F)cc(C(C)C)c2CC(=O)NS(=O)(=O)c2cnn(C3CC3)c2)ccn1 | – | 533 | hepatocyte CLint at 100 µM [1]: < 8 µL/min/1e6 cells; microsomal CLint at 1 µM [2]: < 15.4 µL/min/mg; fraction unbound at 4 h, 5 µM [3]: 0.019; logD [4]: 0.9; fraction unbound at 4 h, 5 µM [5]: 0.017; Papp at 2 h, 5 µM [6]: 5.3 ×10⁻⁶ cm/s; fraction unbound at 4 h, 5 µM [7]: 0.01; efflux ratio [9]: 3.6; clearance [10]: 11 mL/min/kg; Vd [11]: 13.3 L/kg; hepatocyte CLint at 100 µM [12]: < 8 µL/min/1e6 cells; efflux ratio at 2 h, 5 µM [13]: 21; AUC(0-inf) [14]: 1510 ng·h/mL; half-life [15]: 16.4 h; Papp A→B [16]: 0.17 ×10⁻⁶ cm/s; efflux ratio at 2 h, 5 µM [17]: 38; Papp at 2 h, 5 µM [18]: 8.8 ×10⁻⁶ cm/s
CC(C)(O)c1coc(S(=O)(=O)NC(=O)Nc2c3c(cc4c2CCC4)CCC3)c1 | 770 | 64 | IC50 [20]: 990 nM
CC(C)c1cccc2c1CC(=O)NS(=O)(=O)c1ccn(n1)C(C)(C)COc1cc-2ccn1 | – | 1700 | –
O=C1Nc2c(ccc3c2CCC3)-c2ccnc(c2)OCCCn2ccc(n2)S(=O)(=O)N1 | 987 | 571 | –
O=C1Nc2c(ccc3c2CCC3)-c2ccnc(c2)OCCCCn2ccc(n2)S(=O)(=O)N1 | 784 | 176 | –
COc1cc(-c2ccc3c(c2NC(=O)NS(=O)(=O)c2cnn(C(C)C)n2)CCC3)ccn1 | 814 | 58 | –
COc1cc(-c2ccc3c(c2NC(=O)NS(C)(=O)=O)CCC3)ccn1 | – | 1010 | –
COc1cc(-c2ccc3c(c2NC(=O)NS(=O)(=O)c2ccnc(C(C)C)c2)CCC3)ccn1 | 1600 | 23 | –
CC(C)n1ccc(S(=O)(=O)NC(=O)Nc2c(-c3ccnc(OC4CCN(C)C4)c3)ccc3c2CCC3)n1 (centres undefined) | – | 800 | logD [4]: -0.5
CC(C)n1ccc(S(=O)(=O)NC(=O)Nc2c(-c3ccnc(OC4CCOCC4)c3)ccc3c2CCC3)n1 | 1000 | 62 | logD [4]: 0.35; Ratio IC50 [21]: 16
CC(C)c1cccc2c1CC(=O)NS(=O)(=O)c1cnn(c1)C1(CCCC1)COc1cc-2ccn1 | 506 | 105 | –
CC(C)c1cccc2c1CC(=O)NS(=O)(=O)c1cccc(c1)C(C)(C)COc1cc-2ccn1 | – | 1460 | –
CC(C)n1ccc(S(=O)(=O)NC(=O)Nc2c(-c3ccnc(Oc4ccccc4)c3)ccc3c2CCC3)n1 | 5940 | 59 | logD [4]: 1.2; Ratio IC50 [21]: 16
CC(C)c1cccc2c1CC(=O)NS(=O)(=O)c1nn(cc1F)C(C)(C)COc1cc-2ccn1 | – | 480 | –
O=C1Nc2c(ccc3c2CCC3)-c2ccnc(c2)OCCCCCCn2ccc(n2)S(=O)(=O)N1 | 1570 | 215 | –
CC(C)c1cccc2c1CC(=O)NS(=O)(=O)c1cn(cn1)C(C)(C)COc1cc-2ccn1 | – | 721 | –
COc1cc(-c2ccc3c(c2NC(=O)NS(=O)(=O)c2cn(C(C)C)cn2)CCC3)ccn1 | 621 | 61 | –
CC(C)c1cc(F)cc2c1CC(=O)NS(=O)(=O)c1cnn(c1)C(C)(CO)COc1cc-2ccn1 (centres undefined) | 486 | 83 | –
O=C1Nc2c(ccc3c2CCC3)-c2ccnc(c2)OCCCCCn2ccc(n2)S(=O)(=O)N1 | 1100 | 289 | –
CC1(C)COc2cc(ccn2)-c2ccc3c(c2CC(=O)NS(=O)(=O)c2ccn1n2)CCC3 | – | 16000 | –
CC(C)c1cccc2c1CC(=O)NS(=O)(=O)c1cnn(n1)C(C)(C)COc1cc-2ccn1 | – | 1680 | –

Now from value to molecule, other results behind:

IC50 [19] [nM] | SMILES | IC50 [8] [nM] | other results
440 | CC(C)n1ccc(S(=O)(=O)NC(=O)Nc2c(-c3ccnc(OC4CCN(C)CC4)c3)ccc3c2CCC3)n1 | 46 | logD [4]: -0.02
230 | COc1cc(-c2ccc3c(c2NC(=O)NS(=O)(=O)c2nn(C(C)C)cc2F)CCC3)ccn1 | 8 | –
102 | Cc1cc2c(c3c1-c1ccnc(c1)OCC(C)(C)n1cc(F)c(n1)S(=O)(=O)NC(=O)N3)CCC2 | 4 | –
326 | CC(C)c1cc(F)cc2c1CC(=O)NS(=O)(=O)c1cnn(c1)C1(COC1)COc1cc-2ccn1 | 84 | –
204 | CC(C)c1cccc2c1CC(=O)NS(=O)(=O)c1cnn(c1)C1(CCC1)COc1cc-2ccn1 | 52 | –
270 | CC1(C)COc2cc(ccn2)-c2ccc3c(c2NC(=O)NS(=O)(=O)c2ccn1n2)CCC3 | 86 | –
351 | CC(C)c1cc(F)cc2c1CC(=O)NS(=O)(=O)c1cnn(c1)C(C)(C)COc1cc-2ccn1 | 76 | hepatocyte CLint at 100 µM [1]: < 8 µL/min/1e6 cells; hepatocyte CLint at 100 µM [22]: 21 µL/min/1e6 cells; microsomal CLint at 1 µM [2]: < 15.4 µL/min/mg; microsomal CLint at 1 µM [23]: 35 µL/min/mg; fraction unbound at 4 h, 5 µM [3]: 0.036; logD [4]: 1.5; fraction unbound at 4 h, 5 µM [5]: 0.086; Papp at 2 h, 5 µM [6]: 10.9 ×10⁻⁶ cm/s; fraction unbound at 4 h, 5 µM [7]: 0.047; efflux ratio [9]: 2.9; clearance [10]: 3.5 mL/min/kg; solubility kinetic [24]: 16.5 µg/mL (≈ 34.9 µM); Vd [11]: 0.4 L/kg; hepatocyte CLint at 100 µM [12]: < 8 µL/min/1e6 cells; efflux ratio at 2 h, 5 µM [13]: 18; AUC(0-inf) [14]: 4900 ng·h/mL; half-life [15]: 1.5 h; Papp A→B [16]: 0.39 ×10⁻⁶ cm/s; efflux ratio at 2 h, 5 µM [17]: 6; Papp at 2 h, 5 µM [18]: 10.4 ×10⁻⁶ cm/s
421 | CC(C)c1cccc2c1CC(=O)NS(=O)(=O)c1cnn(c1)C1(CC1)COc1cc-2ccn1 | 567 | –
168 | CC1(C)COc2cc(ccn2)-c2ccc3c(c2NC(=O)NS(=O)(=O)c2nn1cc2F)CCC3 | 17 | –
412 | COc1cc(-c2ccc3c(c2NC(=O)NS(=O)(=O)c2ccn(C(C)C)n2)CCC3)ccn1 | 51 | logD [4]: 0.09; microsomal CLint at 1 µM [25]: 12 µL/min/mg
420 | CC(C)c1cccc2c1CC(=O)NS(=O)(=O)c1cnn(c1)C(C)(C)COc1cc-2ccn1 | 166 | –
450 | CC(C)c1cc(F)cc2c1CC(=O)NS(=O)(=O)c1cn(nc1F)C(C)(C)COc1cc-2ccn1 | 20 | –
125 | CC1(C)COc2cc(ccn2)-c2c(F)cc3c(c2NC(=O)NS(=O)(=O)c2nn1cc2F)CCC3 | 8 | –
338 | COc1cc(-c2ccc3c(c2NC(=O)NS(=O)(=O)c2cnn(C(C)C)c2)CCC3)ccn1 | 16 | microsomal CLint at 1 µM [25]: 45 µL/min/mg
241 | CCC1(C)COc2cc(ccn2)-c2cccc(C(C)C)c2CC(=O)NS(=O)(=O)c2cnn1c2 (centres undefined) | 275 | –
119 | O=C1Nc2c(ccc3c2CCC3)-c2ccnc(c2)OCCn2ccc(n2)S(=O)(=O)N1 | 63 | –
441 | CC(C)c1cccc2c1CC(=O)NS(=O)(=O)c1cnn(c1)C(C)(C1CC1)COc1cc-2ccn1 (centres undefined) | 31 | –

From ChEMBL document CHEMBL6083285 (J Med Chem, 2024)
